Measurements reported in the CheMixHub viscosity set.

Test: xn = mol fraction of the nth substance listed

CC(C)CCO + CCCCO
298.15 K, 101 kPa
Details	viscosity [mPa·s]
x2 = 0.1033	3.62
x2 = 0.204	3.472
x2 = 0.2977	3.343
x2 = 0.4026	3.211
x2 = 0.5005	3.093
x2 = 0.6046	2.972
x2 = 0.6996	2.851
x2 = 0.8015	2.746
x2 = 0.9172	2.615

CCOCCO + CCCCO
viscosity [mPa·s]
Details	298.15 K	303.15 K	308.15 K	313.15 K
101 kPa, x1 = 0.0837	2.434	–	–	–
101 kPa, x1 = 0.1706	2.312	–	–	–
101 kPa, x1 = 0.2606	2.206	–	–	–
101 kPa, x1 = 0.3541	2.113	–	–	–
101 kPa, x1 = 0.4513	2.035	–	–	–
101 kPa, x1 = 0.5523	1.984	–	–	–
101 kPa, x1 = 0.6574	1.949	–	–	–
101 kPa, x1 = 0.7669	1.925	–	–	–
101 kPa, x1 = 0.881	1.902	–	–	–
101.33 kPa, x1 = 0.1017	2.284	1.999	1.771	1.565
101.33 kPa, x1 = 0.2007	2.13	1.887	1.671	1.49
101.33 kPa, x1 = 0.2996	2.015	1.787	1.589	1.42
101.33 kPa, x1 = 0.4028	1.958	1.731	1.546	1.378
101.33 kPa, x1 = 0.5032	1.891	1.677	1.499	1.34
101.33 kPa, x1 = 0.6036	1.86	1.656	1.48	1.331
101.33 kPa, x1 = 0.6986	1.838	1.634	1.462	1.31
101.33 kPa, x1 = 0.8029	1.829	1.63	1.458	1.314
101.33 kPa, x1 = 0.9	1.822	1.629	1.462	1.309

CNC(C)=O + CCCCO
303.15 K, 101 kPa
Details	viscosity [mPa·s]
x1 = 0.0988	2.32
x1 = 0.2013	2.369
x1 = 0.2993	2.428
x1 = 0.3951	2.525
x1 = 0.4945	2.651
x1 = 0.5957	2.82
x1 = 0.6947	3.015
x1 = 0.8011	3.259
x1 = 0.8918	3.503

Cc1ccc([S@@](=O)O[C@@H]2C[C@H](C)CC[C@H]2C(C)C)cc1 + CCCCO
298 K, 101.3 kPa
Details	viscosity [mPa·s]
x1 = 0.00223	2.53
x1 = 0.0043	2.548
x1 = 0.00647	2.573
x1 = 0.0087	2.586
x1 = 0.01163	2.628

CC(C)CCO + CCCCOC(C)=O
308 K, 101 kPa
Details	viscosity [mPa·s]
x2 = 0.0998	2.631
x2 = 0.2003	2.091
x2 = 0.3001	1.715
x2 = 0.3999	1.418
x2 = 0.4998	1.221
x2 = 0.5999	1.019
x2 = 0.6997	0.917
x2 = 0.8002	0.811
x2 = 0.9002	0.734

CCOCCO + CCCCOC(C)=O
298.15 K, 101 kPa
Details	viscosity [mPa·s]
x1 = 0.0826	0.6948
x1 = 0.1249	0.7087
x1 = 0.1454	0.7178
x1 = 0.2182	0.7512
x1 = 0.3951	0.8537
x1 = 0.4691	0.9144
x1 = 0.502	0.9435
x1 = 0.5174	0.9569
x1 = 0.5604	0.9991
x1 = 0.6488	1.101
x1 = 0.7547	1.258
x1 = 0.7674	1.276
x1 = 0.7794	1.296
x1 = 0.9079	1.564
x1 = 0.9531	1.676
x1 = 0.9678	1.72
